SMILES strings stand for the structures.

This assay relates to respiratory syncytial virus Long strain. Kind of assay: Antiviral activity against respiratory syncytial virus, MTT cell protection assay in HEp-2 cells. Type of assay: cell-based. The settings on record: HEp-2 cells infected with RSV Long strain, MTT staining. As for the experimental part: The antiviral activity of these compounds against respiratory syncytial virus was determined in HEp-2 (ATCC CCL 23) cells that were seeded in 96 well microtiter plates at 1.5×10^4 cells/100 μL/well in DMEM (Dulbecco's Modified Eagle's Medium) supplemented with penicillin, streptomycin, glutamine, and 10% fetal bovine serum. The cells were incubated overnight at 37° C., the culture medium was removed, and cells were infected (100 μL volume in medium containing 2% fetal bovine serum) with respiratory syncytial virus Long strain at 5000 plaque forming units/mL. The compounds, 100 μL at appropriate dilution, were added to the cells 1 hour post infection. After incubation for 4 days at 37° C., the plates were stained with MTT solution (3-[4,5-dimethlythiazol-2-yl]-2,5-diphenyltetrazolium bromide) and incubated for 4 hours at 37° C. The media was aspirated from the cells and 100 μL/well of acidified isopropanol (per liter: 900 mL isopropanol, 100 mL Triton X100, and 4 mL conc. HCl) was added. Plates were incubated for 15 minutes at room temperature with shaking, and an optical density (OD 540) reading at 540 nanometer (nm) was obtained. The optical density reading is proportional to the number of viable cells. The increase in the number of viable cells reflects the protective, antiviral activity of the compound. […]
On the technique in general: Tetrazolium assays rely on reduction of a dye to a coloured formazan, in cell work by metabolically active cells.

On to `NC(=O)c1ncn([C@@H]2O[C@H](CO)[C@@H](O)[C@H]2O)n1` [Ribavirin], for which the cell protection (at 2.5 μg/mL (corresponding to 10.2 μM)) came to 100%. For the same compound, the EC50 (human respiratory syncytial virus, compound added 1 hour post infection, 4 days at 37° C., read-out: EC50 (concentration that produces 50% cell protection)) amounted to 3 µM.

(Values after patent US6489338B2, “Imidazopyridine and imidazopyrimidine antiviral agents” (Bristol-Myers Squibb Company, priority 2000, dated 2002).)
